{"source": "patent US9518284B2", "about": "(priority 2001, dated 2016)", "tested_on": "yeast cells overexpressing WT alpha-synuclein", "type": "cell-based, Saccharomyces cerevisiae", "key": {"[1]": {"settings": "preliminary study, concentration not given"}, "[2]": {"settings": "preliminary study, agent at 5 μM"}}, "note": "Where two headings read alike, the source gives them in different places."}
{"molecule": "C=CCC(N)C(=O)O", "note": "(racemic) [DL-C-allylglycine]", "values": [{"measurement": "ability to alleviate toxicity caused by alpha-synuclein overexpression", "setting": "preliminary study, agent at 0.025 mg/ml", "result": "alleviate toxocity"}]}
{"molecule": "O=c1cn[nH]c(=O)[nH]1", "note": "[6-azauracil]", "values": [{"measurement": "effect on the growth of yeast cells overexpressing WT alpha-synuclein", "setting": "agent at 30 μg/ml", "result": "negative effect on the growth"}]}
{"molecule": "C[C@@H](O)CC(=O)O", "note": "[(R)-(−)-3-hydroxybutirate]", "values": [{"measurement": "ability to alleviate toxicity caused by alpha-synuclein overexpression", "setting": "[1]", "result": "alleviate toxocity"}]}
{"molecule": "[Ca+2].[Cl-].[Cl-]", "note": "[CaCl2]", "values": [{"measurement": "effect on the growth of yeast cells overexpressing WT alpha-synuclein", "setting": "agent at 0.5 M", "result": "negative effect on the growth"}]}
{"molecule": "[Cl-].[Cl-].[Co+2]", "note": "[CoCl2]", "values": [{"measurement": "effect on the growth of yeast cells overexpressing WT alpha-synuclein", "result": "negative effect on the growth"}]}
{"molecule": "Nc1c(/N=N/c2ccc(-c3ccc(/N=N/c4cc(S(=O)(=O)O)c5ccccc5c4N)cc3)cc2)cc(S(=O)(=O)O)c2ccccc12", "note": "[Congo Red]", "values": [{"measurement": "ability to alleviate toxicity caused by alpha-synuclein overexpression", "setting": "[2]", "result": "alleviate toxocity"}]}
{"molecule": "[Cl-].[Cs+]", "note": "[CsCl]", "values": [{"measurement": "effect on the growth of yeast cells overexpressing WT alpha-synuclein", "setting": "agent at 0.1 M", "result": "negative effect on the growth"}]}
{"molecule": "O=S(=O)([O-])[O-].[Cu+2]", "note": "[CuSo4]", "values": [{"measurement": "effect on the growth of yeast cells overexpressing WT alpha-synuclein", "setting": "agent at 2.5 mM", "result": "negative effect on the growth"}, {"measurement": "effect on the growth of yeast cells overexpressing WT alpha-synuclein", "setting": "agent at 5 mM", "result": "negative effect on the growth"}]}
{"molecule": "C[C@]12CC[C@H]3[C@@H](CCC4=CC(=O)CC[C@@]43C)[C@@H]1CC[C@@H]2C(=O)CO", "note": "[Deoxycorticosterone]", "values": [{"measurement": "ability to alleviate toxicity caused by alpha-synuclein overexpression", "setting": "[1]", "result": "alleviate toxocity"}]}
{"molecule": "O=S(=O)([O-])[O-].O=S(=O)([O-])[O-].O=S(=O)([O-])[O-].[Fe+3].[Fe+3]", "note": "[Fe2(SO4)3]", "values": [{"measurement": "effect on the growth of yeast cells overexpressing WT alpha-synuclein", "setting": "agent at 8.5 mM", "result": "negative effect on the growth"}]}
{"molecule": "[Cl][Fe][Cl]", "note": "[FeCl2]", "values": [{"measurement": "effect on the growth of yeast cells overexpressing WT alpha-synuclein", "setting": "agent at 10 mM", "result": "negative effect on the growth"}, {"measurement": "effect on the growth of yeast cells overexpressing WT alpha-synuclein", "setting": "agent at 15 mM", "result": "negative effect on the growth"}, {"measurement": "effect on the growth of yeast cells overexpressing WT alpha-synuclein", "setting": "agent at 23 mM", "result": "negative effect on the growth"}, {"measurement": "effect on the growth of yeast cells overexpressing WT alpha-synuclein", "setting": "agent at 50 mM", "result": "negative effect on the growth"}]}
{"molecule": "O=S(=O)([O-])[O-].[Fe+2]", "note": "[FeSO4]", "values": [{"measurement": "effect on the growth of yeast cells overexpressing WT alpha-synuclein", "setting": "agent at 20 mM", "result": "negative effect on the growth"}]}
{"molecule": "Cl.N=C(N)N", "note": "[GuHCl]", "values": [{"measurement": "effect on the growth of yeast cells overexpressing WT alpha-synuclein", "setting": "agent at 20 (unit not given)", "result": "negative effect on the growth"}]}
{"molecule": "CN[C@H]1C[C@@H](N)[C@H](O)[C@@H](O[C@@H]2O[C@H](CO)[C@H](O)[C@@H]3OC4(O[C@H]23)O[C@H]([C@@H](N)CO)[C@H](O)[C@H](O)[C@H]4O)[C@@H]1O", "note": "(some centres unmarked) [Hygromycin B]", "values": [{"measurement": "ability to alleviate toxicity caused by alpha-synuclein overexpression", "setting": "preliminary study, agent at 50 μg/ml", "result": "alleviate toxocity"}]}
{"molecule": "N[C@@H](Cc1ccc(O)c(O)c1)C(=O)O", "note": "[L-DOPA, L-dihydroxyphenylalanine]", "values": [{"measurement": "ability to alleviate toxicity caused by alpha-synuclein overexpression", "setting": "[1]", "result": "alleviate toxocity"}]}
{"molecule": "CCSCC[C@H](N)C(=O)O", "note": "[L-ethionine]", "values": [{"measurement": "ability to alleviate toxicity caused by alpha-synuclein overexpression", "setting": "preliminary study, agent at 1 μg/ml", "result": "alleviate toxocity"}]}
{"molecule": "[Cl-].[Cl-].[Mg+2]", "note": "[MgCl2]", "values": [{"measurement": "effect on the growth of yeast cells overexpressing WT alpha-synuclein", "setting": "agent at 0.5 M", "result": "negative effect on the growth"}]}
{"molecule": "O=S(=O)([O-])[O-].[Mg+2]", "note": "[MgSO4]", "values": [{"measurement": "effect on the growth of yeast cells overexpressing WT alpha-synuclein", "setting": "agent at 0.5 M", "result": "negative effect on the growth"}]}
{"molecule": "[Cl-].[Rb+]", "note": "[RbCl]", "values": [{"measurement": "effect on the growth of yeast cells overexpressing WT alpha-synuclein", "setting": "agent at 0.2 M", "result": "negative effect on the growth"}]}
{"molecule": "[Cl-].[Cl-].[Sr+2]", "note": "[SrCl2]", "values": [{"measurement": "effect on the growth of yeast cells overexpressing WT alpha-synuclein", "setting": "agent at 0.5 M", "result": "negative effect on the growth"}]}
{"molecule": "O=C[C@@H](O)[C@H](O)[C@H](O)CO", "note": "[arabinose]", "values": [{"measurement": "effect on the growth of yeast cells overexpressing WT alpha-synuclein", "setting": "agent at 2% in medium", "result": "negative effect on the growth"}]}
{"molecule": "C[C@H]1CCC/C=C/[C@@H]2C[C@H](O)C[C@H]2[C@H](O)/C=C/C(=O)O1", "note": "[brefeldin A]", "values": [{"measurement": "effect on the growth of yeast cells overexpressing WT alpha-synuclein", "setting": "agent at 100 μg/ml", "result": "negative effect on the growth"}]}
{"molecule": "CC[C@@]1(O)C(=O)OCc2c1cc1n(c2=O)Cc2cc3ccccc3nc2-1", "note": "[camptothecin]", "values": [{"measurement": "effect on the growth of yeast cells overexpressing WT alpha-synuclein", "setting": "agent at 5 μg/ml", "result": "negative effect on the growth"}, {"measurement": "ability to alleviate toxicity caused by alpha-synuclein overexpression", "setting": "preliminary study, agent at 0.1 μg/ml", "result": "alleviate toxocity"}]}
{"molecule": "O=C(O)CCCc1ccc(N(CCCl)CCCl)cc1", "note": "[chlorambucil]", "values": [{"measurement": "effect on the growth of yeast cells overexpressing WT alpha-synuclein", "setting": "agent at 3 mM", "result": "negative effect on the growth"}]}
{"molecule": "CCN(CC)CCCC(C)Nc1ccnc2cc(Cl)ccc12", "note": "(centres unmarked) [chloroquine]", "values": [{"measurement": "ability to alleviate toxicity caused by alpha-synuclein overexpression", "setting": "preliminary study, agent at 4.2 μM", "result": "alleviate toxocity"}]}
{"molecule": "O=C(O)c1cc(/N=N/c2ccc(-c3ccc(/N=N/c4ccc(O)c(C(=O)O)c4)cc3)cc2)ccc1O", "note": "[chrysamine G]", "values": [{"measurement": "ability to alleviate toxicity caused by alpha-synuclein overexpression", "setting": "preliminary study, agent at 1.0 μM", "result": "alleviate toxocity"}]}
{"molecule": "Oc1c(I)cc(Cl)c2cccnc12", "note": "[clioquinol]", "values": [{"measurement": "ability to alleviate toxicity caused by alpha-synuclein overexpression", "setting": "[2]", "result": "alleviate toxocity"}]}
{"molecule": "NC=O", "note": "[formamide]", "values": [{"measurement": "effect on the growth of yeast cells overexpressing WT alpha-synuclein", "setting": "agent at 2% in medium", "result": "negative effect on the growth"}]}
{"molecule": "N[C@@H](CCC(=O)N[C@@H](CS)C(=O)NCC(=O)O)C(=O)O", "note": "[glutathione]", "values": [{"measurement": "ability to alleviate toxicity caused by alpha-synuclein overexpression", "result": "alleviate toxocity"}]}
{"molecule": "NC(=O)NO", "note": "[hydroxyurea]", "values": [{"measurement": "effect on the growth of yeast cells overexpressing WT alpha-synuclein", "setting": "agent at 5 mg/ml", "result": "negative effect on the growth"}]}
{"molecule": "CC1=CC(=O)c2ccccc2C1=O", "note": "[menadione]", "values": [{"measurement": "effect on the growth of yeast cells overexpressing WT alpha-synuclein", "setting": "agent at 20-50 μM", "result": "negative effect on the growth"}]}
{"molecule": "C[n+]1ccc(-c2cc[n+](C)cc2)cc1", "note": "[paraquat]", "values": [{"measurement": "effect on the growth of yeast cells overexpressing WT alpha-synuclein", "setting": "agent at 1 mM", "result": "negative effect on the growth"}]}
{"molecule": "NC[C@@H]1O[C@H](O[C@H]2[C@@H](O)[C@H](O[C@@H]3[C@@H](O)[C@H](N)C[C@H](N)[C@H]3O[C@H]3O[C@H](CO)[C@@H](O)[C@H](O)[C@H]3N)O[C@@H]2CO)[C@H](N)[C@@H](O)[C@@H]1O", "note": "[paromomycin]", "values": [{"measurement": "ability to alleviate toxicity caused by alpha-synuclein overexpression", "setting": "preliminary study, agent at 200 μg/ml", "result": "alleviate toxocity"}]}
{"molecule": "N[C@@H](CO)C(=O)O", "note": "[serine]", "values": [{"measurement": "ability to alleviate toxicity caused by alpha-synuclein overexpression", "setting": "preliminary study, agent at 1 mg/ml", "result": "alleviate toxocity"}]}
{"molecule": "NC(N)=O", "note": "[urea]", "values": [{"measurement": "effect on the growth of yeast cells overexpressing WT alpha-synuclein", "setting": "agent at 1 mg/ml", "result": "negative effect on the growth"}]}
{"molecule": "[O]=[V]([O-])([O-])[O-]", "note": "[vanadate]", "values": [{"measurement": "effect on the growth of yeast cells overexpressing WT alpha-synuclein", "setting": "agent at 0.1 mM", "result": "negative effect on the growth"}, {"measurement": "effect on the growth of yeast cells overexpressing WT alpha-synuclein", "setting": "agent at 1 mM", "result": "negative effect on the growth"}, {"measurement": "effect on the growth of yeast cells overexpressing WT alpha-synuclein", "setting": "agent at 2 mM", "result": "negative effect on the growth"}, {"measurement": "effect on the growth of yeast cells overexpressing WT alpha-synuclein", "setting": "agent at 4 mM", "result": "negative effect on the growth"}, {"measurement": "effect on the growth of yeast cells overexpressing WT alpha-synuclein", "setting": "agent at 7 mM+KCl", "result": "negative effect on the growth"}]}
{"molecule": "bleomycin", "values": [{"measurement": "effect on the growth of yeast cells overexpressing WT alpha-synuclein", "setting": "agent at 1 μg/ml", "result": "negative effect on the growth"}]}
{"molecule": "protamine sulphate", "values": [{"measurement": "ability to alleviate toxicity caused by alpha-synuclein overexpression", "setting": "preliminary study, agent at 250 μM", "result": "alleviate toxocity"}]}
